Results taken from US8106055B2, “Substituted amide compounds” (Gruenenthal GmbH, priority 2007, dated 2012).

Legend:
[1] = target: T1, human μ opiate receptor (Homo sapiens, UniProt P35372); assay: Affinity for the human μ opiate receptor ([3H]-naloxone displacement, CHO-K1 receptor membrane preparation, SPA); format: binding; conditions: test concentration of 1 μM
T1 construct: purchased PerkinElmer Life Sciences, Zaventem, Belgium RB-HOM; host or cells: CHO-K1 cells (membrane preparation)
Summary of the method: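 Membranes from CHO-K1 cells expressing the human μ opiate receptor (15-40 μg protein per well) were incubated with test compound, 1 nmol/l [3H]-naloxone and WGA-SPA beads in 50 mmol/l Tris-HCl with 0.06% BSA for 90 minutes at room temperature. Values are % inhibition of specific binding at 1 μmol/l.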

[2] = target: T2, bradykinin 1 receptor (B1R) of the rat (Rattus norvegicus, UniProt P97583); assay: Functional investigation on the rat bradykinin 1 receptor (B1R), Ca2+ FLIPR assay in CHO K1 rB1R cells; format: cell-based; conditions: B1R antagonism rat; test substance 10 μM; Ca2+ FLIPR, CHO K1 rB1R cells
T2 construct: expressed in transfected cells; host or cells: CHO K1 cells
T2 sequence (P97583 1-337): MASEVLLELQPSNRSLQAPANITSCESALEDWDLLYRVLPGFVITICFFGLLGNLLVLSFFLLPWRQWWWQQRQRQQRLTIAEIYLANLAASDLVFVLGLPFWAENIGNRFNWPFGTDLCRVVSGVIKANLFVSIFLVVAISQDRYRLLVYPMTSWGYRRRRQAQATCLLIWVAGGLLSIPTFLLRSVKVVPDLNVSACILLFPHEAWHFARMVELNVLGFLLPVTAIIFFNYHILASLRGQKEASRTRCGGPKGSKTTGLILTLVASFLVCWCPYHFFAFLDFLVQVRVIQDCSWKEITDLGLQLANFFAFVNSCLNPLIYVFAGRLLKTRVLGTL
Summary of the method: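 Cells were dye-loaded with Fluo-4 plus probenecid, then test substances added and Ca2+ influx compared with agonist control for % activation. After 10-20 min, EC80 agonist (Lys-Des-Arg9-bradykinin human; Des-Arg9-bradykinin rat) was applied; suppression gave % inhibition and IC50 values.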

T1 sequence (P35372 whole entry): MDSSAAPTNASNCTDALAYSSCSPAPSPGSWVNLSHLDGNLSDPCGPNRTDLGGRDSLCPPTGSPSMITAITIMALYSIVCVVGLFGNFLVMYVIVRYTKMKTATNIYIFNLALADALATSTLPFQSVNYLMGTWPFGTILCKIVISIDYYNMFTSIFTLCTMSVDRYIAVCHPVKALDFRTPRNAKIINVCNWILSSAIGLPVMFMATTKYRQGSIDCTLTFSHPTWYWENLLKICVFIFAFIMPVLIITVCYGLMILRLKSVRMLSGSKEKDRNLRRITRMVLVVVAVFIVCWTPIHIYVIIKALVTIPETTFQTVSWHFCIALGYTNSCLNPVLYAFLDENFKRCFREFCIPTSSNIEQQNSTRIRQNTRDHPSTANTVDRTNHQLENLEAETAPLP

Structure (SMILES) | μ (binding on the μ opioid receptor, % inhibition) [1] [%] | B1R Ant. r [10 μM] % Inhibition [2] [%]
CCN(CCOCC(=O)NCC1CCC(C(c2ccc(Cl)cc2)N(C)C)CC1)S(=O)(=O)c1c(C)cc(OC)c(C)c1C (centres unmarked) [Example 310] | 61 | 33
COc1cc(C)c(S(=O)(=O)N(C)CCOCC(=O)NCCC2CCC(C(c3ccc(F)cc3)N(C)C)CC2)c(C)c1C (centres unmarked) [Example 354] | 61 | 44
CN(C)C(c1ccc(F)cc1)C1CCC(CCNC(=O)COCC2CCCCN2S(=O)(=O)c2ccc(Cl)c(Cl)c2)CC1 (centres unmarked) [Example 337] | 64 | −23
CN(C)C(c1ccc(F)cc1)C1CCC(NC(=O)COC2CCN(S(=O)(=O)c3cccc(C(F)(F)F)c3)C2)CC1 (centres unmarked) [Example 330] | 54 | 16
COc1ccc(S(=O)(=O)N2CCC(OCC(=O)NCCC3CCC(C(c4ccc(Cl)cc4)N(C)C)CC3)C2)cc1OC (centres unmarked) [Example 338] | 69 | 27
COc1ccc(S(=O)(=O)N(C)CCOCC(=O)NCC2CCC(C(c3ccc(Cl)cc3)N(C)C)CC2)cc1 (centres unmarked) [Example 324] | 62 | 48
COc1ccc(S(=O)(=O)N2CCCCC2COCC(=O)NCCC2CCC(C(c3ccc(Cl)cc3)N(C)C)CC2)cc1 (centres unmarked) [Example 311] | 67 | 64
CN(C)C(c1cccs1)C1CCC(NC(=O)COCCN(C)S(=O)(=O)c2ccc(OC(F)(F)F)cc2)CC1 (centres unmarked) [Example 282] | 74 | 20
COc1ccc(S(=O)(=O)N(C)CCOCC(=O)NCCC2CCC(C(c3cccc(F)c3)N(C)C)CC2)cc1 (centres unmarked) [Example 292] | 74 | 34
CN(C)C(c1ccc(Cl)cc1)C1CCC(CNC(=O)COC2CCCN(S(=O)(=O)c3ccccc3)C2)CC1 (centres unmarked) [Example 301] | 69 | 18
COc1ccc(S(=O)(=O)N2CCC(OCC(=O)NC3CCC(C(c4cccc(F)c4)N(C)C)CC3)C2)cc1OC (centres unmarked) [Example 323] | 67 | 23
COc1cc(C)c(S(=O)(=O)N(C)CCOCC(=O)NCC2CCC(C(c3ccc(Cl)cc3)N(C)C)CC2)c(C)c1C (centres unmarked) [Example 298] | 64 | 14
CN(C)C(c1ccc(F)cc1)C1CCC(NC(=O)COCCN(C)S(=O)(=O)c2ccc(Cl)cc2Cl)CC1 (centres unmarked) [Example 356] | 55 | 43
COc1ccc(S(=O)(=O)N2CCCCC2COCC(=O)NCCC2CCC(C(c3cccc(F)c3)N(C)C)CC2)c(OC)c1 (centres unmarked) [Example 281] | 77 | 18
COc1cc(C)c(S(=O)(=O)N2CCCC(OCC(=O)NC3CCC(C(c4cccc(F)c4)N(C)C)CC3)C2)c(C)c1C (centres unmarked) [Example 279] | 77 | 7
Cc1ccc(S(=O)(=O)N2CCC(OCC(=O)NCCC3CCC(C(c4ccc(Cl)cc4)N(C)C)CC3)C2)cc1 (centres unmarked) [Example 305] | 63 | 29

Structure (SMILES) | μ (binding on the μ opioid receptor, % inhibition) [1] [%] | B1R Ant. r [10 μM] % Inhibition [2] [%]
CN(C)C(c1ccc(Cl)cc1)C1CCC(CCNC(=O)COCCN(C)S(=O)(=O)c2cccc(C(F)(F)F)c2)CC1 (centres unmarked) [Example 289] | 67 | 13
CN(C)C(c1ccc(Cl)cc1)C1CCC(CNC(=O)COCCN(C)S(=O)(=O)c2ccc(Cl)cc2)CC1 (centres unmarked) [Example 284] | 70 | 32
COc1ccc(S(=O)(=O)N(C)CCOCC(=O)NCC2CCC(C(c3cccc(F)c3)N(C)C)CC2)cc1 (centres unmarked) [Example 340] | 69 | 23
CN(C)C(c1cccc(F)c1)C1CCC(CNC(=O)COCCN(C)S(=O)(=O)c2cccc(C(F)(F)F)c2)CC1 (centres unmarked) [Example 302] | 75 | 0
CN(C)C(c1ccc(Cl)cc1)C1CCC(CNC(=O)COCC2CCCN(S(=O)(=O)c3ccccc3)C2)CC1 (centres unmarked) [Example 294] | 63 | 32
CN(C)C(c1ccc(F)cc1)C1CCC(NC(=O)COCCN(C)S(=O)(=O)c2ccc(F)cc2)CC1 (centres unmarked) [Example 357] | 57 | 27
COc1ccc(S(=O)(=O)N2CCCC2COCC(=O)NCC2CCC(C(c3ccc(Cl)cc3)N(C)C)CC2)cc1 (centres unmarked) [Example 351] | 63 | 34
COc1ccc(S(=O)(=O)N2CCCC2COCC(=O)NCC2CCC(C(c3cccc(F)c3)N(C)C)CC2)cc1 (centres unmarked) [Example 313] | 71 | 31
CN(C)C(c1ccc(F)cc1)C1CCC(NC(=O)COCCN(C)S(=O)(=O)c2ccc(OC(F)(F)F)cc2)CC1 (centres unmarked) [Example 361] | 59 | 31
COc1ccc(S(=O)(=O)N2CCCCC2COCC(=O)NCC2CCC(C(c3ccc(Cl)cc3)N(C)C)CC2)cc1 (centres unmarked) [Example 321] | 70 | 77
CN(C)C(c1ccc(Cl)cc1)C1CCC(CNC(=O)COCCN(C)S(=O)(=O)c2cccc(C(F)(F)F)c2)CC1 (centres unmarked) [Example 314] | 64 | 13
Cc1ccc(S(=O)(=O)N2CCC(OCC(=O)NCC3CCC(C(c4ccc(Cl)cc4)N(C)C)CC3)C2)cc1 (centres unmarked) [Example 304] | 64 | 19
CN(C)C(c1ccc(F)cc1)C1CCC(CCNC(=O)COCCN(C)S(=O)(=O)c2c(Cl)cccc2Cl)CC1 (centres unmarked) [Example 285] | 69 | 75
CN(C)C(c1ccc(Cl)cc1)C1CCC(CCNC(=O)COCCN(C)S(=O)(=O)c2ccc(Cl)cc2)CC1 (centres unmarked) [Example 347] | 63 | 56
COc1cc(C)c(S(=O)(=O)N2CCC(CCOCC(=O)NCC3CCC(C(c4cccc(F)c4)N(C)C)CC3)CC2)c(C)c1C (centres unmarked) [Example 319] | 71 | 11
